Our source for the inhibition values is ChEMBL document CHEMBL3301470, “MMV Malaria Box screening against Plasmodium falciparum Deoxyhypusine hydroxylase” (2015).

SMILES strings stand for the structures.

One may read the inhibition as the change of the read-out against control, counted positive when it falls. Higher therefore signals strong suppression.

In the test the target is T1, Deoxyhypusine hydroxylase (Plasmodium falciparum (isolate 3D7)) (UniProt Q8I701).
T1 sequence (whole entry): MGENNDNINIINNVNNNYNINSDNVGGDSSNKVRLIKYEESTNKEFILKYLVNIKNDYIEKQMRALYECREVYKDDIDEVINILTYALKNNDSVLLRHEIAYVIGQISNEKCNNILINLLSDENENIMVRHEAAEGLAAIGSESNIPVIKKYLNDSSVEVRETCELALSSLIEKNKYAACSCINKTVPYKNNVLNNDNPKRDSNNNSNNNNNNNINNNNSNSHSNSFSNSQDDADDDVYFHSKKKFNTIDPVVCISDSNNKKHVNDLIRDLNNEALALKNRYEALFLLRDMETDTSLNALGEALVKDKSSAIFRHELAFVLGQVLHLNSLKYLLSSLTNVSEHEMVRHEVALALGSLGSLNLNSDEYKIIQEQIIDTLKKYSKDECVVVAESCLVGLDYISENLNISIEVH
Description: MMV: Deoxyhypusine hydroxylase activity assay. The conditions noted are these: concentration not given here.
`COc1ccc(-c2nc3cc(Cc4ccc5[nH]c(-c6ccc(OC)cc6)nc5c4)ccc3[nH]2)cc1` registered an inhibition of 38.8%. As for `c1ccc(Cn2c(N=Nc3c(Nc4ccccc4)ccc4ccccc34)nc3ccccc32)cc1`, the figure is 35.9%. Next, `CCOc1ccc(-c2nonc2NC(=O)c2cccc(C)c2)cc1OCC`: 43.3%.
